Assay results: article PMC12254266, “Multicolored sequential resonance energy transfer for detection of simultaneous ligand binding at G protein-coupled receptors” (Nature Communications, 2025)
“And” between values parts separate entries of the source, which are not always exact repeats. Identical values can stand only once.

How the values were obtained:
Nluc-FFA1 = biological target: T1, Nluc-FFA1 (Homo sapiens, UniProt O14842); experiment: NanoBRET binding (saturation, competition, kinetics) at N terminal Nluc tagged FFA1; details: for Specific BRET (690/450)%: Figure 4Ci; for Specific BRET (690/450)% / Specific BRET (540/450)%: technical duplicates; for Specific BRET (540/450)%: Figure 4Cii
T1 construct: expressed in transfected cells
Experimental: Nluc-FFA1 or FFA1-Nluc Flp-In T-REx 293 cells were plated at 50,000 cells per well in poly-D-lysine coated white 96-well plates. Cells were cultured for 24 h in the plate before medium was replaced with medium containing 100 ng/mL of doxycycline to induce receptor expression. After culturing for a further 24 h, medium was removed, cells were washed with HBSS and incubated in HBSS for 30 min. To start the assay, NanoGlo substrate (Promega, N1110) was added to the cells at a 1:800 final dilution and incubated for 10 min at 37 °C. For endpoint assays, including both saturation and competition binding, test ligands were then added, including both fluorescent and unlabelled competing ligands as indicated, and plates incubated for a further 5 min at 37 °C. NanoBRET was then quantified in a CLARIOstar microplate reader (BMG Labtech) by measuring luminescent emission with the monochrometer set for the Nluc donor at 450–60 nm, and acceptor luminescent emission 540–60 nm (NBD), 600–80 nm (Cy3.5) or 690–100 nm (SulfoCy5), depending on which fluorophore was being tested. The acceptor/donor BRET ratio was then taken as a measure of fluorophore binding. For kinetic on then off NanoBRET experiments plates were washed the same way and substrate was added to the same concentration. However, 10 min after substrate was added plates were inserted into the CLARIOstar microplate reader set to 25 °C to take repeated measurements of luminescent emission for both the donor and the acceptor fluorophore being used. After 5 min of background measurements, the indicated concentration of fluorescent ligand was added using the plate reader injector and luminescent emission was monitored for ~10 min before the reader was paused to manually add a high concentration of appropriate competing ligand to initiate dissociation. The plate was returned to the reader and luminescence measurements were continued for a further 30 min to monitor dissociation of the fluorescent ligand. For kinetic experiments using multiple concentrations of fluorescent ligand, cells were placed in the plate reader immediately after the addition of Nano-Glo substrate and luminescent measurements were taken. After 5 min, the reader was paused to add the indicated concentrations of fluorescent ligand, before measurements were continued. To set non-specific binding for kinetic experiments, the indicated competing ligand was added 5 min before the addition of the fluorescent ligand.

FFA1 [1] = biological target: T2, FFA1 (Homo sapiens, UniProt O14842); experiment: Ca2+ mobilisation (Fura2) in Flp-In T-REx 293 cells expressing Nluc-FFA1, FFA1-Nluc or untagged FFA1; type: cell-based; parameters: expressed in transfected cells; details: for Ca2+ Response as a % of T360 Response: single technical replicates
Experimental: Nluc-FFA1, FFA1-Nluc or untagged FFA1 Flp-In T-REx 293 cells were plated at 50,000 cells per well in poly-D-lysine coated black clear bottom 96-well plates. Cells were then cultured for 24 h until reaching confluency before culture medium was replaced with medium containing 100 ng/mL of doxycycline to induce receptor expression. Cells were cultured for a further 24 h before the assay. On the day of the assay culture medium was removed and replaced with medium containing 3 μM Fura2-AM Ca^2+ dye. […] Fura2 fluorescent emission at 520 nm following excitation with each of 340 and 380 nm was measured in regular intervals both before and after adding test compounds for a total of 90 s per well. Calcium responses were determined by taking the peak 340/380 ratio after first subtracting the ratios obtained prior to addition of test compound.

FFA1 [2] = biological target: T2, FFA1; experiment: NanoBiT arrestin-3 recruitment in HEK293T cells; type: cell-based; parameters: expressed in transfected cells; host or cells: HEK293T, transient; details: for Arrestin recruitment (% TUG-905): technical duplicate
Experimental: For arrestin-3 recruitment assays, HEK293T cells were transfected with FFA1 receptor and a bystander NanoBiT split luciferase arrestin-3 recruitment biosensor. Cells were transfected and plated simultaneously in a reverse transfection protocol into a poly-D-lysine coated white 96-well plate. Per well, 60,000 cells were transfected with 5 ng plasmid expressing LgBiT with a N-terminal Lyn11 plasma membrane localisation tag, 5 ng plasmid expressing bovine arrestin-3 fused at its N-terminal to SmBiT tag and 30 ng plasmid expressing the human FFA1 receptor. Total DNA was made up to 100 ng total/well with empty pcDNA3 vector and transfected to cell suspension with 0.6 µg/well PEI. Following transfection cells were cultured for 24 h before use. On the day of assay, cells were washed twice with HBSS and incubated in HBSS for 30 min at 37 °C. NanoGlo substrate was added at a final 1:800 dilution and incubated in the dark for 10 min at 37 °C. […] Raw luminescence values were divided by baseline signal (average of first 5 data points prior to compound addition) and vehicle measurements subtracted from agonist treatment. Area under curves were calculated and concentration response curves plotted.

T1 sequence (O14842 whole entry): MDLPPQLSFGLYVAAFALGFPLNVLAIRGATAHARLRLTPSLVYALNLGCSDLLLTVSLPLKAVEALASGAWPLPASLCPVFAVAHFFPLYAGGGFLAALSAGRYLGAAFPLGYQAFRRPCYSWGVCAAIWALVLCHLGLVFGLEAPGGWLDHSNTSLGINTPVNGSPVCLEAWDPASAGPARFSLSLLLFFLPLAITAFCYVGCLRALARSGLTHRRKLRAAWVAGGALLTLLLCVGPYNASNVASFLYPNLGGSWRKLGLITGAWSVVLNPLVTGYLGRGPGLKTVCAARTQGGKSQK
T2 sequence (O14842 whole entry): as above

Structure (SMILES): COc1ccc(C(=O)N(CC(C)(C)C)c2cccc(C)n2)c(N2CCC(COc3cccc(C(CC(=O)O)C4CC4)c3)CC2)c1.O=C(O)C(F)(F)F (stereo not shown) [Cpd 6h, reference compound]
- Specific BRET (690/450)% (Nluc-FFA1; log[Ligand] -5): 154.01% and 159.82% and 184.44% and 164.18% and 149.89% and 140.91%
- Specific BRET (690/450)% (Nluc-FFA1; log[Ligand] -5.5): 149.18% and 149.96% and 186.01% and 169.50% and 140.81% and 140.26%
- Specific BRET (690/450)% (Nluc-FFA1; log[Ligand] -6): 148.97% and 147.78% and 172.23% and 173.39% and 141.21% and 145.62%
- Specific BRET (690/450)% (Nluc-FFA1; log[Ligand] -6.5): 146.95% and 143.16% and 174.27% and 175.78% and 147.71% and 149.19%
- Specific BRET (690/450)% (Nluc-FFA1; log[Ligand] -7): 142.54% and 138.75% and 174.07% and 180.89% and 144.33% and 137.24%
- Specific BRET (690/450)% (Nluc-FFA1; log[Ligand] -8): 121.15% and 120.06% and 152.10% and 144.46% and 121.71% and 120.62%
- Specific BRET (690/450)% (Nluc-FFA1; log[Ligand] -9): 105.22% and 101.22% and 121.39% and 115.73% and 104.79% and 106.52%
- Specific BRET (690/450)% (Nluc-FFA1; log[Ligand] -10): 100.55% and 99.45% and 103.65% and 96.35% and 96.40% and 103.60%
- Specific BRET (540/450)% (Nluc-FFA1; log[Ligand] -7): 19.25% and 26.02% and 25.79% and 30.80% and 33.39% and 36.04%
- Specific BRET (540/450)% (Nluc-FFA1; log[Ligand] -8): 119.18% and 117.93% and 79.82% and 76.64% and 93.10% and 100.29%
- Specific BRET (540/450)% (Nluc-FFA1; log[Ligand] -9): 109.78% and 127.71% and 86.42% and 90.20% and 105.18% and 118.46%
- Specific BRET (540/450)% (Nluc-FFA1; log[Ligand] -10): 94.36% and 105.64% and 98.39% and 101.61% and 82.28% and 117.72%
- 'bottom' of the IC50 curve fit, Nano-BRET TUG-2591 (Nluc-FFA1; percentage of binding in the absence of competing ligand, tracer TUG-2591 100 nM): 160%
- 'bottom' of the IC50 curve fit, Nano-BRET TUG-2597 (Nluc-FFA1; percentage of binding in the absence of competing ligand, tracer TUG-2597 […]): -16%
- pIC50 Nano-BRET TUG-2597 (Nluc-FFA1; tracer TUG-2597 […], NBD/Nluc): 7.2±0.03
- pKi Nano-BRET TUG-2597 (Nluc-FFA1; using Kd TUG-2597 380 nM): 7.5±0.03
- pEC50 (FFA1 [1]; Ca2+ data, mean±SEM, NR = No response): 7.58±0.37
- Ca2+ Response as a % of T360 Response (FFA1 [1]; log[Ligand] -5): 84.6341% and 118.5422% and 131.5391% and 131.6815%
- Ca2+ Response as a % of T360 Response (FFA1 [1]; log[Ligand] -5.5): 110.3362% and 90.2944% and 104.2328% and 116.7691% and 104.8460% and 102.3011%
- Ca2+ Response as a % of T360 Response (FFA1 [1]; log[Ligand] -6): 71.8152% and 70.2762% and 114.0711% and 118.1782% and 101.8675% and 96.5850%
- Ca2+ Response as a % of T360 Response (FFA1 [1]; log[Ligand] -6.5): 60.3759% and 123.2785% and 113.4233% and 101.5371% and 93.1451%
- Ca2+ Response as a % of T360 Response (FFA1 [1]; log[Ligand] -7): 63.1956% and 51.7459% and 118.1727% and 120.9922% and 92.4678% and 86.2833%
- Ca2+ Response as a % of T360 Response (FFA1 [1]; log[Ligand] -8): 10.9661% and -4.3988% and 87.5826% and 74.3785% and 6.7799% and 2.9748%
- Ca2+ Response as a % of T360 Response (FFA1 [1]; log[Ligand] -9): -2.3895% and -2.3898% and 3.1637% and 3.9796% and -0.4916% and 4.7706%
- EMax (FFA1 [1]; percentage of response to 10 μM T360, NR = No response): 108±8%
- Arrestin recruitment (% TUG-905) (FFA1 [2]; log[ligand] -6): 78.0249 % TUG-905 and 64.444 % TUG-905 and 40.7503 % TUG-905 and 51.9792 % TUG-905 and 61.8079 % TUG-905 and 63.543 % TUG-905
- Arrestin recruitment (% TUG-905) (FFA1 [2]; log[ligand] -6.5): 82.3608 % TUG-905 and 53.7805 % TUG-905 and 51.6658 % TUG-905 and 54.0552 % TUG-905 and 67.7023 % TUG-905 and 49.6983 % TUG-905
- Arrestin recruitment (% TUG-905) (FFA1 [2]; log[ligand] -7.5): 66.0536 % TUG-905 and 57.1103 % TUG-905 and 48.5714 % TUG-905 and 47.0829 % TUG-905 and 58.219 % TUG-905 and 65.2186 % TUG-905
- Arrestin recruitment (% TUG-905) (FFA1 [2]; log[ligand] -8): 69.0414 % TUG-905 and 63.7801 % TUG-905 and 51.8356 % TUG-905 and 46.0645 % TUG-905 and 48.8783 % TUG-905 and 52.0275 % TUG-905
- EMax (% TUG-905) arrestin-3 recruitment (FFA1 [2]; percentage of the response to 10 μM TUG-905, ± SEM): 54 ± 6%
- pEC50 arrestin-3 recruitment (FFA1 [2]; ± SEM, N=3): 9.1 ±0.1
